Reference: ChEMBL document CHEMBL1201862, “PubChem BioAssay data set” (2004)
Active and inactive are the calls of the source.

Tests used:
Perilipin-1/ABHD5 = Perilipin-1/ABHD5 (Homo sapiens, UniProt O60240+Q8WTS1); experiment: Luminescence-based biochemical high throughput dose response assay for inhibitors of the interaction of the lipase co-activator protein, abhydrolase domain containing 5 (ABHD5) with perilipin-1 (PLIN1) (2K validation set). [Related pubchem assays (depositor defined):AID493027, AID493057]
[1] = target: 1-acylglycerol-3-phosphate O-acyltransferase ABHD5/Perilipin-5 (Homo sapiens, UniProt Q00G26+Q8WTS1); experiment: Luminescence-based biochemical high throughput dose response assay for inhibitors of the interaction of the lipase co-activator protein, abhydrolase domain containing 5 (ABHD5) with perilipin-5 (MLDP; PLIN5) (2K validation set). [Related pubchem assays (depositor defined):AID493035, AID493241]
[2] = target: Alkaline phosphatase, placental type (Homo sapiens, UniProt P05187); experiment: PLAP enzyme inhibitors, confirmation, biochemical, luminescence (AID 1512); format: functional
[3] = target: T1, Alkaline phosphatase, tissue-nonspecific isozyme (Homo sapiens, UniProt P05186); experiment: human TNAP enzyme inhibitors, SAR follow-up, biochemical, luminescent, dose response (AID 1056)
T1 sequence (P05186 whole entry): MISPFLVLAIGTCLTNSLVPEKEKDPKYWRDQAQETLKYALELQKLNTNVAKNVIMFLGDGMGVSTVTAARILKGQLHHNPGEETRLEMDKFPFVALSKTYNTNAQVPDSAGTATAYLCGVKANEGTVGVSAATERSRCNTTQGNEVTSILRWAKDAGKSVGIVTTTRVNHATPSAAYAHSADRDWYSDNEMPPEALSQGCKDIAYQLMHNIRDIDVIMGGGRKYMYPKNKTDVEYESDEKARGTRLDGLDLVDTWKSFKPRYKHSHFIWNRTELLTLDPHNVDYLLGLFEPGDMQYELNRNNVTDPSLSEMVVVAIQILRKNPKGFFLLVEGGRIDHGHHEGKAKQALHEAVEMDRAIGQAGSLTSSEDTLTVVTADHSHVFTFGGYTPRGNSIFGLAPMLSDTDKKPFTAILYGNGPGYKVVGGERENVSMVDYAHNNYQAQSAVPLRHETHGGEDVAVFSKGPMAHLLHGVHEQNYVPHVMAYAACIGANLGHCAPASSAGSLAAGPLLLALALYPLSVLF

Hexokinase = Hexokinase (Trypanosoma brucei, UniProt Q38C41); experiment: Confirmation assay for inhibitors of Trypanosoma brucei hexokinase 1-Analogue-first series. [Related pubchem assays (depositor defined):AID1430, AID1632, AID2516, AID2560, AID2579, AID2600, AID449725, AID492951]; format: functional
Phosphomannomutase 2 = Phosphomannomutase 2 (Homo sapiens, UniProt O15305); experiment: Counter screen SAR assay for PMM2 inhibitors via a fluorescence intensity assay. [Related pubchem assays (depositor defined):AID1545, AID1574]
[4] = target: T2, Mannose-6-phosphate isomerase (Homo sapiens, UniProt P34949); experiment: PMI enzyme inhibitors, confirmation, biochemical, fluorescence intensity (AID 1535)
T2 sequence (P34949 whole entry): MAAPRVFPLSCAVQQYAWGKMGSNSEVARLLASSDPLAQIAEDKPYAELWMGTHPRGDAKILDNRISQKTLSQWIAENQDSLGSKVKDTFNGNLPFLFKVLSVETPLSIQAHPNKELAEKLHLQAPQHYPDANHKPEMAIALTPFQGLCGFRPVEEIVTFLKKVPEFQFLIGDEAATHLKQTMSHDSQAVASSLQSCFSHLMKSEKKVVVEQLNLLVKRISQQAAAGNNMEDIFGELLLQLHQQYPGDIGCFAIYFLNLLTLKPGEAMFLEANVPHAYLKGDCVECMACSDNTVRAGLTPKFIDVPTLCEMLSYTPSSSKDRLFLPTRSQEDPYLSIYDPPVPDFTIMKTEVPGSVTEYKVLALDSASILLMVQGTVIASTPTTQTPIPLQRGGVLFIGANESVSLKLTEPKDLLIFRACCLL

Integrin alpha-L = Integrin alpha-L (Mus musculus, UniProt P24063); experiment: modulators of CD8 T cell-vesicle binding, dose response, powder samples, mouse 2C CD8+ cells (AID 504565); format: functional
CAAX prenyl protease 2 = CAAX prenyl protease 2 (Saccharomyces cerevisiae S288c, UniProt Q03530); format: biochemical
[5] = target: T3, Small ubiquitin-related modifier 1 (Homo sapiens, UniProt P63165); experiment: inhibitors of SUMO1 partner interactions, dose response, biochemical, FRET (AID 624383); format: functional; settings: read-out: IC50_Mean
Genome polyprotein = Genome polyprotein (dengue virus type 2, UniProt P29990); experiment: Dengue-2 NS5 methyltransferase inhibitors, primary screen, biochemical, confirmation dose response (AID 588689); format: functional
[6] = HIV-1 Env-mediated cell fusion inhibitors, dose response, CCR5-tropic Env (AID 2279); format: functional
[7] = target: T4, Replicative DNA helicase DnaB (Mycobacterium tuberculosis, UniProt P9WMR3); experiment: DnaB intein splicing inhibitors, dose response, biochemical, cell-free fluorescence (AID 449749); format: functional
T4 sequence (P9WMR3 whole entry): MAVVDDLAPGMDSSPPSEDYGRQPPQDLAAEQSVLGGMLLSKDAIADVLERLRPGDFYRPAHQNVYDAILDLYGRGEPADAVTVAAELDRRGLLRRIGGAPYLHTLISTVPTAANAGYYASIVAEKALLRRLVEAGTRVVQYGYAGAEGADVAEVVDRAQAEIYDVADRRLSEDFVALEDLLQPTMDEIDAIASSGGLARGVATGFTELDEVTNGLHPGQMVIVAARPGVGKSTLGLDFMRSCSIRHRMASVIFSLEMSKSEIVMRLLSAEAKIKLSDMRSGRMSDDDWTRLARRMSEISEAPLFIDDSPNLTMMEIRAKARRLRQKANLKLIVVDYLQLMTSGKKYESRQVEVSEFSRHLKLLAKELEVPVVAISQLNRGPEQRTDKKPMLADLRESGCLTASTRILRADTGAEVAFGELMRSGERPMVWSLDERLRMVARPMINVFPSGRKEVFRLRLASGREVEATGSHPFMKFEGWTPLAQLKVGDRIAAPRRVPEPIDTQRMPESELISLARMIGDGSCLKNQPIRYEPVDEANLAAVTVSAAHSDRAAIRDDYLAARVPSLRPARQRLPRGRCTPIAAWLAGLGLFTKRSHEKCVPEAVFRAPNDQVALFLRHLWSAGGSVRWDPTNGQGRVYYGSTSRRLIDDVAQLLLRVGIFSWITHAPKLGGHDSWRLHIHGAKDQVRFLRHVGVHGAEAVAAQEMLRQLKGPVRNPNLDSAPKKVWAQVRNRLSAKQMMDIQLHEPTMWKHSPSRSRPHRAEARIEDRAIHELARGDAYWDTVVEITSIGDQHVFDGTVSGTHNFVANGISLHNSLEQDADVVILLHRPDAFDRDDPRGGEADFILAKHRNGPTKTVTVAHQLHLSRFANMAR

Vero = Vero cell cytotoxicity, cytotoxicity control for flavivirus capping enzyme inhibitors (AID 588742); format: functional; settings: Chlorocebus sabaeus
[8] = target: T3, Small ubiquitin-related modifier 1; experiment: inhibitors of SUMO1 peptide binding, dose response, biochemical, fluorescence polarization, uHTS hits (AID 624382); format: functional; settings: read-out: IC50_Mean
[9] = target: T5, Small ubiquitin-related modifier 2 (Homo sapiens, UniProt P61956); experiment: SUMO2–SIM peptide binding inhibitors, dose response, selectivity assay for SUMO1 interaction inhibitor project, biochemical, fluorescence polarization, uHTS hits (AID 624385); format: functional; settings: read-out: IC50_Mean
[10] = target: Dual specificity tyrosine-phosphorylation-regulated kinase 1A (Rattus norvegicus, UniProt Q63470); format: biochemical, Homo sapiens
Troponin, cardiac muscle = Troponin, cardiac muscle (Homo sapiens, UniProt P19429+P45379+P63316); experiment: inhibitors of cardiac thin filament calcium sensitivity, dose response, biochemical, fluorescence, cardiac regulated thin filaments, triplicate IC50 (AID 504742); format: protein-complex assay
[11] = target: T5, Small ubiquitin-related modifier 2; experiment: inhibitors of SUMO2 protein-protein interaction, dose response, selectivity assay for SUMO1 interaction inhibitor project, biochemical, FRET, human SUMO2, uHTS hits (AID 624384); format: functional; settings: read-out: IC50_Mean
Protein RecA = target: T6, Protein RecA (Mycobacterium tuberculosis, UniProt P9WHJ3); experiment: Fluorescence Cell-Free Homogeneous Dose Retest to Identify Inhibitors of RecA-Intein Splicing Activity. [Related pubchem assays (depositor defined):AID2097, AID2223, AID489010, AID492950]; format: functional
T6 sequence (P9WHJ3 whole entry): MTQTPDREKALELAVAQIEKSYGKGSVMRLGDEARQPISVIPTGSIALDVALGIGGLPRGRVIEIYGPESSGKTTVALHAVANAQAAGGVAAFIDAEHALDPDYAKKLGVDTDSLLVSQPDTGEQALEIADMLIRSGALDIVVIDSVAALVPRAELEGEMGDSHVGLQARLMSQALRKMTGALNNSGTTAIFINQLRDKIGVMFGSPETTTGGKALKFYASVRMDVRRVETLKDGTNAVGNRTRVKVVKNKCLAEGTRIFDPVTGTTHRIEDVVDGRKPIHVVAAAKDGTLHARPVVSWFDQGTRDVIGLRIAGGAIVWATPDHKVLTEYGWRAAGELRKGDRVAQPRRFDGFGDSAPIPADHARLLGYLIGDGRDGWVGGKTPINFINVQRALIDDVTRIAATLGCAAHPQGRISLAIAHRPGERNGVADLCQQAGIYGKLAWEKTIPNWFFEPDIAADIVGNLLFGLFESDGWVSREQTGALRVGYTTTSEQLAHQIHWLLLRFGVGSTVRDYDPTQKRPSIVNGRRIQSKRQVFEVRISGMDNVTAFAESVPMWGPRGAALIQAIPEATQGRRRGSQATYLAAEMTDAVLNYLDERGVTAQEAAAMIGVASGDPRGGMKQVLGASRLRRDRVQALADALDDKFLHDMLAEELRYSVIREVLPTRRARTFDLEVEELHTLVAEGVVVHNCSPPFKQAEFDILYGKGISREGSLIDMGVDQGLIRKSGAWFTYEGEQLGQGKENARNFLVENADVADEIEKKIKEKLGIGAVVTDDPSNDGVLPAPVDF

[12] = target: T7, Kappa-type opioid receptor (Homo sapiens, UniProt P41145); experiment: SAR analysis of small molecule antagonists of the kappa opioid receptor via a luminescent beta-arrestin assay - Set 3. [Related pubchem assays (depositor defined):AID1777, AID1778, AID1785, AID1786, AID1966, AID2133, AID2136, AID2285, AID2495]; format: functional
[13] = target: Delta-type opioid receptor (Homo sapiens, UniProt P41143); experiment: SAR Analysis of Antagonists of the DOR Receptor using an Image-Based Assay - Set 3. [Related pubchem assays (depositor defined):AID1777, AID1785]; format: functional;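 further: U2OS cells expressing DOR1 and beta-arrestin GFP stimulated with 100 nM SNC80; imaging of GFP-tagged beta-arrestin moving into spots after receptor activation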
[14] = target: T7, Kappa-type opioid receptor; experiment: SAR analysis of Antagonists of the Kappa Opioid Receptor (KOR) using an Image-Based Assay - Set 3. [Related pubchem assays (depositor defined):AID1777, AID1785]; format: functional
Mu-type opioid receptor = Mu-type opioid receptor (Homo sapiens, UniProt P35372); experiment: SAR Analysis of Antagonists of the MOR Receptor using an Image-Based Assay - Set 3. [Related pubchem assays (depositor defined):AID1777, AID1785, AID1786, AID1966, AID2133, AID2136, AID2284, AID2285, AID2420]; format: functional

O=C(CN1CC[n+]2c(-c3cccs3)csc21)c1ccc(Br)cc1
IC50 (Perilipin-1/ABHD5): 27.5 µM (inactive)
IC50 [1]: 14.8 µM (inactive)

O=C(NC1(C(Cl)(Cl)Cl)Oc2ccccc2O1)OCN1C(=O)C2C=CC=CC2C1=O (centres undefined)
IC50 [2]: > 100 µM (inactive)
IC50 [3]: > 100 µM (inactive)

CC(C)(C)c1ccc(C(=O)Nc2cc(Cl)ccc2-c2nnn[nH]2)cc1
IC50 (Hexokinase): 3.46 µM (active)

Cc1csc(-n2sc3ccccc3c2=O)n1
IC50 (Phosphomannomutase 2): > 100 µM (inactive)
IC50 [4]: > 50 µM (inactive)

Cc1ccccc1C(=O)N1CCC(C(=O)Nc2ccc(C)c(S(=O)(=O)N3CCCCC3)c2)CC1
EC50 (Integrin alpha-L): 29.1 µM (inactive)

O=C(CCNC(=O)N1CC(=O)Nc2ccccc21)NCCc1cccc(F)c1
AC50 (CAAX prenyl protease 2): 0.359 µM (active)

O=[N+]([O-])c1cc([N+](=O)[O-])c2oc(-c3ccccc3)c(Br)c2c1O
IC50 [5]: 50.9 µM (inactive)
IC50 (Genome polyprotein): 43.8 µM (active)
IC50 [6]: 16.3 µM (active)
AC50 [7]: 3.08 µM (active)
CC50 (Vero): 17.9 µM (active)
IC50 [8]: 4.09 µM (active)
IC50 [9]: 3.44 µM (active)
AC50 [10]: 1.94 µM (active)
IC50 (Troponin, cardiac muscle): > 23.8 µM (inactive)
IC50 [11]: > 66 µM (inactive)
EC50 (Protein RecA): 111 µM (active)

CCN(CCNC(=O)c1ccc(CNS(=O)(=O)c2ccc(OC)cc2)cc1)Cc1ccccc1
IC50 [12]: 16.3 µM (inactive)
IC50 [13]: > 32 µM (inactive)
IC50 [14]: 10.8 µM (inactive)
IC50 (Mu-type opioid receptor): 12.6 µM (inactive)
